Data taken from PMC5078989, “Targeted inhibition of the COP9 signalosome for treatment of cancer” (Nature Communications, 2016).

System: panel of cancer cell lines
Test: Cell viability (CellTiter-Glo) dose-response across cancer cell line panel;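 on EC50: after 72 h compound incubation with CellTiter-Glo ATP readout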
Assay type: cell-based, human
Conditions: for EC50: Homo sapiens
Source text: Next, we explored the effect of CSN5 inhibition on the viability of cancer cells. To obtain a comprehensive picture, we generated dose–response curves with a CSN5 inhibitor across more than 500 cancer cell lines in a previously described standardized setting[47] (Supplementary Data 1).
A standardized CellTiter-Glo Assay (Promega #G7570) based on the quantification of ATP was applied according to the manufacturer's protocol to measure the amount of viable cells in culture. In brief, cells were seeded into 384-well plates at optimal density for each cell line. After 4 h, compounds were added at different concentrations in growth medium and incubated for another 72 h in a humidifying chamber at 37 °C and 5% CO2. […] EC50 values were calculated from the plot of percentage of inhibition versus inhibitor concentration using the nonlinear regression analysis software Origin 7.5SR6 (OriginLab Corp.).

## COCc1ccccc1NCc1ccc([C@@H]2[C@H](O)CCCc3cncn32)c(-c2ccccc2Cl)c1 [CSN5i-2e, (5R,6R)-5-(2′-chloro-5-(((2-(methoxymethyl)phenyl)amino)methyl)-[1,1′-biphenyl]-2-yl)-6,7,8,9-tetrahydro-5H-imidazo[1,5-a]azepin-6-ol]
SNU-685 cells
  EC50: > 30 µM
SNU-738 cells
  EC50: 14.6 µM
SNU-761 cells
  EC50: 11.3 µM
SNU-1040 cells
  EC50: 18.9 µM
SNU-1079 cells
  EC50: 13.1 µM
SNU-C1, SNU-C1 cells
  EC50: 17.8 µM
SNU-C2A cells
  EC50: 10.7 µM
SNU-C4, SNU-C4 cells
  EC50: 13.7 µM
SNU-C5 cells
  EC50: 8.36 µM
SR-786, SR-786 cells
  EC50: 11.4 µM
SU-DHL10, SU-DHL-10 cells
  EC50: 5.76 µM
SU-DHL-4, SU-DHL-4 cells
  EC50: 10.9 µM
SU-DHL-5, SU-DHL-5 cells
  EC50: 4.35 µM
SU-DHL-6, SU-DHL-6 cells
  EC50: 6.01 µM
SU-DHL-8, SU-DHL-8 cells
  EC50: 6.55 µM
SU.86.86, SU.86.86 cells
  EC50: 10.8 µM
SUM44PE cells
  EC50: 26.1 µM
SUM52PE, SUM52PE cells
  EC50: 3.38 µM
SUM149PT, SUM149PT cells
  EC50: 10.6 µM
SUM-159-PT, SUM159PT cells
  EC50: 11.1 µM
SUP-T1, SUP-T1 cells
  EC50: 10.1 µM
SW48, SW48 cells
  EC50: 12.2 µM
SW480, SW480 cells
  EC50: 9.61 µM
SW982, SW982 cells
  EC50: 11.4 µM
SW1088, SW 1088 cells
  EC50: 10.6 µM
SW1271, SW 1271 cells
  EC50: 18.7 µM
SW1573, SW 1573 cells
  EC50: 9.37 µM
SW1783, SW 1783 cells
  EC50: > 30 µM
SW-403, SW403 cells
  EC50: 23.8 µM
SW-620, SW620 cells
  EC50: 21.8 µM
SYO-1 cells
  EC50: 11.2 µM
Sq-1 cells
  EC50: 11.8 µM
T3M4, T3M-4 cells
  EC50: 18.8 µM
T47D, T-47D cells
  EC50: 7.39 µM
TANOUE cells
  EC50: 6.4 µM
TC-71, TC-71 cells
  EC50: 9.61 µM
TCC-PAN2 cells
  EC50: 28.9 µM
TE-6, TE-6 cells
  EC50: 14 µM
TE-11, TE-11 cells
  EC50: 10.7 µM
TE-15, TE-15 cells
  EC50: 15.1 µM
TF-1, TF-1 cells
  EC50: 8.75 µM
THP-1, THP-1 cells
  EC50: 5.46 µM
TYK-nu cells
  EC50: 10.6 µM
U266B1 cells
  EC50: 9.53 µM
U-118-MG, U-118 MG cells
  EC50: 25.3 µM
U-937, U-937 cells
  EC50: 7.39 µM
UACC-62, UACC-62 cells
  EC50: 13.9 µM
UACC-257, UACC-257 cells
  EC50: 11.2 µM
UCH1, UCH-1 cells
  EC50: 14.7 µM
UKE1, UKE1 cells
  EC50: 9.11 µM
VM-CUB-1, VM-CUB1 cells
  EC50: 4.45 µM
VMRC-LCD cells
  EC50: 11 µM
VMRC-RCW cells
  EC50: 11.9 µM
WM 266-4, WM-266-4 cells
  EC50: 17.1 µM
WM983B, WM-983B cells
  EC50: 9.66 µM
WM-88 cells
  EC50: 13.6 µM
WM-115, WM-115 cells
  EC50: 7.37 µM
WSU-WM cells
  EC50: 7.7 µM
YAPC, YAPC cells
  EC50: 11.5 µM
Hs 695T cells
  AMAX: -86.8488
Hs 936.T cells
  AMAX: -93.4541
HuG1-N cells
  AMAX: -87.0263
HuH-7 cells
  AMAX: -97.6516
IGR-37 cells
  AMAX: -77.0355
IGROV1 cells
  AMAX: -71.2355
IPC-298 cells
  AMAX: -72.365
Ishikawa cells
  AMAX: -88.4272
J82 cells
  AMAX: -35.798
JHH-4 cells
  AMAX: -90.0924
JHOS-2 cells
  AMAX: -45.7705
JHUEM-2 cells
  AMAX: -96.4199
JHUEM-3 cells
  AMAX: -54.8666
JL-1 cells
  AMAX: -68.6834
JVM-2 cells
  AMAX: -97.127
KARPAS-422 cells
  AMAX: -93.641
KATO III cells
  AMAX: -77.3764
KBM-7 cells
  AMAX: -97.1328
KE-97 cells
  AMAX: -93.3813
KMRC-1 cells
  AMAX: -75.0974
KP-1N cells
  AMAX: -76.285
KP-2 cells
  AMAX: -93.6503
KP-3 cells
  AMAX: -72.8527
KU-19-19 cells
  AMAX: -88.0441
KYSE-150 cells
  AMAX: -68.4693
KYSE-180 cells
  AMAX: -91.1186
Kasumi3 cells
  AMAX: -95.9336
L-363 cells
  AMAX: -92.1173
LC2/ad cells
  AMAX: -70.6199
LCLC-103H cells
  AMAX: -71.5681
MFE-280 cells
  AMAX: -75.2715
MM138 cells
  AMAX: -91.9111
MM415 cells
  AMAX: -83.1051
MM426 cells
  AMAX: -57.5258
MM485 cells
  AMAX: -82.1717
MM537 cells
  AMAX: -84.9338
MOLT-16 cells
  AMAX: -96.4687
MeWo cells
  AMAX: -73.0371
NB-1 cells
  AMAX: -97.6901
NCI-H82 cells
  AMAX: -96.2323
NCI-H146 cells
  AMAX: -95.028
NCI-H322 cells
  AMAX: -82.8728
NCI-H441 cells
  AMAX: -78.9188
NCI-H810 cells
  AMAX: -2.884
NCI-H841 cells
  AMAX: -94.3751
NCI-H1373 cells
  AMAX: -93.5484
NCI-H1568 cells
  AMAX: -98.9282
NCI-H1755 cells
  AMAX: -88.1389
NCI-H2023 cells
  AMAX: -87.7102
NCI-H2087 cells
  AMAX: -85.0078
NCI-H2452 cells
  AMAX: -48.2134
ONCO-DG-1 cells
  AMAX: -95.499
OUMS-23 cells
  AMAX: -91.7164
OV56 cells
  AMAX: -92.0115
P3HR-1 cells
  AMAX: -92.6521
P12-ICHIKAWA cells
  AMAX: -96.1728
PA-TU-8988T cells
  AMAX: -59.6796
PANC-1 cells
  AMAX: -78.7196
PC-3 cells
  AMAX: -66.4355
PE/CA-PJ49 cells
  AMAX: -89.0883
PF-382 cells
  AMAX: -96.9256
Panc 03.27 cells
  AMAX: -56.1495
Panc 04.03 cells
  AMAX: -74.9732
Panc 10.05 cells
  AMAX: -81.9961
RD-ES cells
  AMAX: -95.6768
RT-112 cells
  AMAX: -70.4236
SEM cells
  AMAX: -91.5844
SF-268 cells
  AMAX: -46.326
SK-ES-1 cells
  AMAX: -87.9534
SK-MEL-3 cells
  AMAX: -63.3656
